In patent US20040110844A1, “Anti-tumor pharmaceutical composition comprising N-vanillyl fatty acid amide” (KUREHA CHEMICAL INDUSTRY COMPANY, Limited, priority 2002, published 2004):

Tests used:
B16F10 melanoma cell [1] = test: Phase contrast microscope observation of treated melanoma cells; type: cell-based, mouse; details: Dohevanil 50 μM compared with capsaicin 300 μM
Method: The observation of cytomorphology using the light microscope was carried out by counting with TMS (NIKON Corporation) and photographing, after plating the cells on a multiplate, and culturing it for a given time.
The shape and appearance of the melanoma cells treated in the presence of capsaicin in the concentration of 300 μM or Dohevanil in the concentration of 50 μM was observed using a phase contrast microscope.

[2] = test system: human acute leukemia cell U937; test: U937 cell growth by cell differential staining with trypan blue; type: cell-based; details: for survival ratio of the cells: 100 μM, U937 cells; for action on the growth of U937 cells (in words): 10, 30, 50, 100 μM
Method: In order to make a comparison between the anti-leukemic cell effects of capsaicin and Dohevanil, the following experimentation was carried out using a human acute leukemia cell U937. The U937 cells were cultured in RPMI-1640 medium (pH7.2) with 5% bovine fetal serum under the culture conditions being maintained in 5% CO2 and at 37 degrees Celsius. capsaicin or Dohevanil was added to each of the cell suspensions in the concentration of 10 μM, 30 μM, 50 μM,or 100 μM and then the cells were cultured. In this comparative example, the capability of cell growth was evaluated using the measured value as an indicator obtained by a method for the cell differential staining with trypan blue.
The method for the cell differential staining with trypan blue is a method utilizing the characters that trypan blue combines with a protein to color in blue and that trypan blue enters into the dead cells due to the loss of a membrane function to prevent from its invasion. Since the dead cells are colored in blue with trypan blue, the survival ratio of the cells can be determined by counting the stained cells using a microscope.

B16F10 melanoma cell [3] = test: Growth of B16F10 melanoma cells, number of cells counted with trypan blue and hemocytometer; type: cell-based, mouse; details: for cells in culture relative to the control culture: 50 μM; for cells in culture relative to the control culture / cells in culture relative to the control culture (survival ratio): cultured for 48 hours, B16F10; for cells in culture relative to the control culture (survival ratio): 100 μM; for action on the growth of melanoma cells (in words): 10-300 μM capsaicin, 10-100 μM Dohevanil, 48 hours, versus control
Method: B16F10 melanoma cell used for the comparison was a malignant melanoma cell derived from a mouse. The melanoma cells were cultured under 5% CO2 condition at 37 degrees Celsius in DMEM culture medium (pH7.2) including 10% of bovine fetus serum and penicillin/streptomycin solution. After the cells reached from 70% to 80% confluent, the cells were treated with trypsin-EDTA to release from the wall of culture device and were subjected to passage culture.
The number of cells were measured by the process comprising suspending the cells collected, sufficiently mixing the suspension with a trypan blue stain solution in the same volume of the suspension, watching the suspension using a phase contrast microscope and measuring the number of cells with a hemocytometer (Burker-Turk hemocytometer, Nippon Rinsho Kikai Kogyo Ltd.)
In order to examine the action of capsaicin to the growth of melanoma cells, the number of the cells were measured after 10 μM, 30 μM, 50 μM, 100 μM, or 300 μM of capsaicin was added to the MDEM media in which the melanoma cells exist and then the cells were cultured for 48 hours. […] In order to examine the action of Dohevanil to the growth of melanoma cells, the number of the cells were measured in the same manner as conducted for capsaicin except that capsaicin was replaced with Dohevanil. The melanoma cells were cultured in 10 μM, 30 μM, 50 μM, or 100 μM of Dohevanil.

caspase 3 activity [4] = test: Measurement of caspase 3 activity (Example 6); type: cell-based
B16F10 melanoma cell [5] = test: Hoechst 33342 fluorescence microscopy for apoptosis in melanoma cells; type: cell-based, mouse; details: Hoechst33342, each concentration, versus control
Method: The observation using the fluorescence microscope was carried out by the process comprising washing with PBS (−) a suspension of B16F10 cells treated with an agent for a given time (1×10^6 cells/ml), fixing the cells with 4% paraformaldehyde overnight, washing the cell fixed solution with PBS(−), suspending the cells in 20 μl of PBS (−), mixing 2 μl of fluorescence indicator (Hoechst 33342 (1 mM)) with each 5 μl of the cell suspension, placing a cover glass on the mixture, watching it using the fluorescence microscope (U region) and photographing.
The shape of the cells was observed using Hoechst33342 (dye) which specifically combined with the chromosome by fluorescence microscope to find out whether or not the cell death by capsaicin or Dohevanil was due to the apoptosis. As a result, the aggregation of chromatins and the disorder of nuclear shape, which are characteristics of the cell death by apoptosis, were observed by comparison with the control in each concentration of capsaicin or Dohevanil.

caspase 3 activity [6] = test: Measurement of caspase 3 activity (Example 7, U937); type: cell-based, human
Method: In particular, when the concentration is 100 μM, although the survival ratio of the cells with capsaicin is about 50%, that with Dohevanil is zero (0) %. Accordingly, it is apparent as compared with capsaicin that Dohevanil is very low in the degree of hotness and stimulus, and coincidentally has a higher anti-leukemic cell effects.

HeLa cells = test: HeLa cell growth by WST-1 method and LDH active release; type: cell-based, human; details: for survival ratio of the cells: 100 μM, HeLa cells; for action on the growth of HeLa cells (in words): 10, 30, 50, 100 μM
Method: (§1) In order to make a comparison between the anti-tumor effects of capsaicin and Dohevanil, the following experimentation was carried out using HeLa cells derived from human uterocervical cancer as a tomor cell and NIH/3T3 cells as a normal cell. These cells used in the experimentation were cultured in RPMI-1640 medium (pH7.2) with 5% bovine fetal serum under the culture conditions being maintained in 5% CO2 and at 37 degrees Celsius. capsaicin or Dohevanil was added to each of the cell suspensions in the concentration of 10 μM, 30 μM, 50 μM, or 100 μM and then the cells were cultured. In this comparative example, the capability of cell growth was measured by WST-1 method and LDH active release into the supernatant as an indicator.
(§2) In this connection, the term “WST-1 method” used in the example means a method comprising reducing a formazan by using a reductase activity of mitochondria and determining an absorption of the coloring. The absorption may be used as an indicator of the cell growth because the reductase activity of mitochondria is lost if the cells die. The term “LDH active release” as used herein means that LDH (lactate dehydrogenase) is released due to a destruction of cell membrane accompanied with a cell death, and the measured value of the active release can be used as an indicator of the cell death.

NIH/3T3 cells = test: NIH/3T3 normal cell growth by WST-1 method and LDH active release; type: cell-based; details: concentration 30 μM or less
Method: as §1, §2

[7] = test system: HL-60 cell (acute promyelocytic leukemia cell); details: low concentration; cited from earlier work
[8] = test system: normal cells of human mammary gland epithelium and of liver and kidney of the rat; details: cited from earlier work
[9] = test system: Hela cell (uterocervica cancer cell); details: low concentration; cited from earlier work

Row | Compound | melanoma cells adhered to the wall of culture vessel (in words) (B16F10 melanoma cell [1]) | survival ratio of the cells [2] | action on the growth of U937 cells (in words) [2] | cells in culture relative to the control culture (B16F10 melanoma cell [3]) | cells in culture relative to the control culture (survival ratio) (B16F10 melanoma cell [3]) | action on the growth of melanoma cells (in words) (B16F10 melanoma cell [3]) | apoptosis according to caspase 3 activity (caspase 3 activity [4]) | induction of apoptosis (aggregation of chromatins, disorder of nuclear shape) (B16F10 melanoma cell [5]) | apoptosis according to caspase 3 activity (caspase 3 activity [6]) | survival ratio of the cells (HeLa cells) | action on the growth of HeLa cells (in words) (HeLa cells) | action to NIH/3T3 normal cells (in words) (NIH/3T3 cells) | proliferative inhibitory effect (in words) [7] | proliferative inhibitory effect to normal cells (in words) [8] | proliferative inhibitory effect (in words) [9]
1 | CC/C=C\C/C=C\C/C=C\C/C=C\C/C=C\C/C=C\CCC(=O)NCc1ccc(O)c(OC)c1 [Dohevanil, N-vanillyl-4,7,10,13,16,19-Docosahexaenamide] | extremely reduced | 0% | suppress the growth of U937 cells depending on their concentrations | about 10% | 0% | suppressed the growth of the cells depending on the concentration | induce the apoptosis to cause the cell death | strongly induces the apoptosis | induce the apoptosis to cause the cell death | 0% | suppress the growth of HeLa cells depending on their concentrations | hardly act | – | – | –
2 | COc1cc(CNC(=O)CCCCC=CC(C)C)ccc1O [capsaicin, 8-methyl-N-vanillyl-6-nonenamide] | – | about 50% | suppress the growth of U937 cells depending on their concentrations | about 60% | about 50% | suppressed the growth of the cells depending on the concentration | induce the apoptosis to cause the cell death | induce the apoptosis to melanoma cells | induce the apoptosis to cause the cell death | about 50% | suppress the growth of HeLa cells depending on their concentrations | hardly act | proliferative inhibitory effect in a low concentration | without any proliferative inhibitory effects | proliferative inhibitory effect in a low concentration
